From patent US20250230193A1, “CYCLIC COMPOUND HAVING SELECTIVE KRAS INHIBITORY EFFECT ON HRAS AND NRAS” (CHUGAI SEIYAKU KABUSHIKI KAISHA, priority 2022, published 2025)

Columns and labels:
[1] = biological target: GDP-bound NRAS wild-type protein (Homo sapiens, UniProt P01111); assay: Binding to NRAS by surface plasmon resonance (SPR), Single Cycle Kinetics; settings: SPR; KD ratio class
[2] = biological target: GDP-bound HRAS wild-type protein (Homo sapiens, UniProt P01112); assay: Binding to HRAS by surface plasmon resonance (SPR), Single Cycle Kinetics; settings: SPR; KD ratio class
[3] = tested on: human lung cancer strain NCI-H441; assay: cells; settings: NCI-H441, 96 h, read-out: NCI-H441 IC50 (nM)

Chain of GDP-bound HRAS wild-type protein (P01112 whole entry): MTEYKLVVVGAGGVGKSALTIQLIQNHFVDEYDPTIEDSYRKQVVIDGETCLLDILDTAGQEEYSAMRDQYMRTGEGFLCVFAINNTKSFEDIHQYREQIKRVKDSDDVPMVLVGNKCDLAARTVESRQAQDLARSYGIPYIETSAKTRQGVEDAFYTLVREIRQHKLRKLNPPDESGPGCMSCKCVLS
Chain of GDP-bound NRAS wild-type protein (P01111 whole entry): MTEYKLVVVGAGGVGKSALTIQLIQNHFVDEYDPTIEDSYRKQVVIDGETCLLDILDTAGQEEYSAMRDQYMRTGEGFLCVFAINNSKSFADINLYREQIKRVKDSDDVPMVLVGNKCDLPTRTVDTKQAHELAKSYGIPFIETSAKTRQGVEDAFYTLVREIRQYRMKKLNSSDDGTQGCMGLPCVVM

Row | SMILES | NRAS/KRAS (ratio of KD value for GDP-bound NRAS wild-type protein to KD value for KRAS) [1] | HRAS/KRAS (ratio of KD value for GDP-bound HRAS wild-type protein to KD value for KRAS) [2] | IC50 [3] [nM]
1 | CCO[C@@H]1C[C@H]2C(=O)NC3(CCC3)C(=O)N(C)[C@@H](C3CCCC3)C(=O)N(C)[C@H](C)CC(=O)N(C)[C@@H](CC3CC3)C(=O)N[C@@H]([C@@H](C)CC)C(=O)N(C)CC(=O)N(C)[C@H]3C/C=C\CCN(C3=O)[C@@H](Cc3ccc(F)cc3C)C(=O)N(C)CC(=O)N[C@@H](CCc3cc(F)c(C(F)(F)F)c(F)c3)C(=O)N2C1 [PP1489] | B (a compound having 3 or more and less than 10 is denoted as B) | B (a compound having 3 or more and less than 10 is denoted as B) | 118
2 | CCO[C@@H]1C[C@H]2C(=O)NC3(CCC3)C(=O)N(C)[C@@H](C3CCCC3)C(=O)N(C)[C@H](C)CC(=O)N(C)[C@@H](CC3CC3)C(=O)N[C@@H]([C@@H](C)CC)C(=O)N(C)CC(=O)N(C)[C@H]3C/C=C\CCN(C3=O)[C@@H](Cc3ccc(F)cc3)C(=O)N(C)CC(=O)N[C@@H](CCc3cc(F)c(C(F)(F)F)c(F)c3)C(=O)N2C1 [PP1490] | B (a compound having 3 or more and less than 10 is denoted as B) | B (a compound having 3 or more and less than 10 is denoted as B) | 48.9
3 | CCO[C@@H]1C[C@H]2C(=O)NC3(CCC3)C(=O)N(C)[C@@H](C3CCCC3)C(=O)N(C)[C@H](C)CC(=O)N(C)[C@@H](CC3CCCC3)C(=O)N[C@@H]([C@@H](C)CC)C(=O)N(C)CC(=O)N(C)[C@H]3C/C=C\CCN(C3=O)[C@@H](Cc3ccc(F)cc3)C(=O)N(C)CC(=O)N[C@@H](CCc3cc(F)c(C(F)(F)F)c(F)c3)C(=O)N2C1 [PP1492] | B (a compound having 3 or more and less than 10 is denoted as B) | B (a compound having 3 or more and less than 10 is denoted as B) | 129
4 | CCO[C@@H]1C[C@H]2C(=O)NC3(CCC3)C(=O)N(C)[C@@H](C3CCCC3)C(=O)N(C)[C@H](C)CC(=O)N(C)[C@@H](CC(C)C)C(=O)N[C@@H]([C@@H](C)CC)C(=O)N(C)CC(=O)N(C)[C@H]3C/C=C\CCN(C3=O)[C@@H](Cc3ccc(F)cc3C)C(=O)N(C)CC(=O)N[C@@H](CCc3cc(F)c(C(F)(F)F)c(F)c3)C(=O)N2C1 [PP1493] | B (a compound having 3 or more and less than 10 is denoted as B) | B (a compound having 3 or more and less than 10 is denoted as B) | 135
5 | CCO[C@@H]1C[C@H]2C(=O)NC3(CCC3)C(=O)N(C)[C@@H](C3CCCC3)C(=O)N(C)[C@H](C)CC(=O)N(C)[C@@H](CC(C)C)C(=O)N[C@@H]([C@@H](C)CC)C(=O)N(C)CC(=O)N(C)[C@H]3C/C=C\CCN(C3=O)[C@@H](Cc3ccc(F)cc3)C(=O)N(C)CC(=O)N[C@@H](CCc3cc(F)c(C(F)(F)F)c(F)c3)C(=O)N2C1 [PP1494] | B (a compound having 3 or more and less than 10 is denoted as B) | B (a compound having 3 or more and less than 10 is denoted as B) | 142
6 | CCO[C@@H]1C[C@H]2C(=O)NC3(CCC3)C(=O)N(C)[C@@H](C3CCCC3)C(=O)N(C)[C@H](C(=O)N3CCOCC3)CC(=O)N(C)[C@@H](CC3CC3)C(=O)N[C@@H]([C@@H](C)CC)C(=O)N(C)CC(=O)N(C)[C@H]3C/C=C\CCN(C3=O)[C@@H](Cc3ccc(F)cc3C)C(=O)N(C)CC(=O)N[C@@H](CCc3cc(F)c(C(F)(F)F)c(F)c3)C(=O)N2C1 [PP1495] | A (a compound having 10 or more and less than 20 is denoted as A) | B (a compound having 3 or more and less than 10 is denoted as B) | 98.7
7 | CCO[C@@H]1C[C@H]2C(=O)NC3(CCC3)C(=O)N(C)[C@@H](C3CCCC3)C(=O)N(C)[C@H](C(=O)N3CCOCC3)CC(=O)N(C)[C@@H](CC3CC3)C(=O)N[C@@H]([C@@H](C)CC)C(=O)N(C)CC(=O)N(C)[C@H]3C/C=C\CCN(C3=O)[C@@H](Cc3ccc(F)cc3)C(=O)N(C)CC(=O)N[C@@H](CCc3cc(F)c(C(F)(F)F)c(F)c3)C(=O)N2C1 [PP1496] | A (a compound having 10 or more and less than 20 is denoted as A) | B (a compound having 3 or more and less than 10 is denoted as B) | 36.7
8 | CC[C@H](C)[C@@H]1NC(=O)[C@H](CC2CCCC2)N(C)C(=O)C[C@@H](C(=O)N(C)C)N(C)C(=O)[C@H](C2CCCC2)N(C)C(=O)C2(CCC2)NC(=O)[C@@H]2C[C@@H](F)CN2C(=O)[C@H](CCc2cc(F)c(C(F)(F)F)c(F)c2)NC(=O)CN(C)C(=O)[C@H](Cc2ccc(C(F)(F)F)cc2)N2CC/C=C\C[C@@H](C2=O)N(C)C(=O)CN(C)C1=O [PP1502] | A (a compound having 10 or more and less than 20 is denoted as A) | A (a compound having 10 or more and less than 20 is denoted as A) | 2
9 | CC[C@H](C)[C@@H]1NC(=O)[C@H](CC2CC2)N(C)C(=O)C[C@@H](C(=O)N(C)C)N(C)C(=O)[C@H](C2CCCC2)N(C)C(=O)C2(CC(C)(C)C2)NC(=O)[C@@H]2C[C@@H](C(F)(F)F)CN2C(=O)[C@H](CCc2cc(F)c(C(F)(F)F)c(F)c2)NC(=O)CN(C)C(=O)[C@H](Cc2ccc(C(F)(F)F)cc2)N2CC/C=C\C[C@@H](C2=O)N(C)C(=O)CN(C)C1=O [PP1504] | A (a compound having 10 or more and less than 20 is denoted as A) | A (a compound having 10 or more and less than 20 is denoted as A) | 38
10 | CC[C@H](C)[C@@H]1NC(=O)[C@H](CC2CC2)N(C)C(=O)C[C@@H](C(=O)N2CCCC2)N(C)C(=O)[C@H](C2CCCC2)N(C)C(=O)C2(CCCC2)NC(=O)[C@@H]2C[C@@H](C(F)(F)F)CN2C(=O)[C@H](CCc2cc(F)c(C(F)(F)F)c(F)c2)NC(=O)CN(C)C(=O)[C@H](Cc2ccc(C(F)(F)F)cc2)N2CC/C=C\C[C@@H](C2=O)N(C)C(=O)CN(C)C1=O [PP1506] | AA (a compound having 20 or more is denoted as AA) | A (a compound having 10 or more and less than 20 is denoted as A) | 73.4
11 | CC[C@H](C)[C@@H]1NC(=O)[C@H](CC2CC2)N(C)C(=O)C[C@@H](C(=O)N(C)C)N(C)C(=O)[C@H](C2CCCC2)N(C)C(=O)C2(CC(C)(C)C2)NC(=O)[C@@H]2C[C@@H](C(F)(F)F)CN2C(=O)[C@H](CCc2cc(F)c(C(F)(F)F)c(F)c2)NC(=O)CN(C)C(=O)[C@H](Cc2ccc(F)cc2)N2CC/C=C\C[C@@H](C2=O)N(C)C(=O)CN(C)C1=O [PP1507] | A (a compound having 10 or more and less than 20 is denoted as A) | A (a compound having 10 or more and less than 20 is denoted as A) | 16.2
12 | CC[C@H](C)[C@@H]1NC(=O)[C@H](CC2CCCC2)N(C)C(=O)C[C@@H](C(=O)N(C)C)N(C)C(=O)[C@H](C2CCCC2)N(C)C(=O)C2(CCC2)NC(=O)[C@@H]2C[C@@H](C(F)(F)F)CN2C(=O)[C@H](CCc2cc(F)c(C(F)(F)F)c(F)c2)NC(=O)CN(C)C(=O)[C@H](Cc2ccc(F)cc2)N2CC/C=C\C[C@@H](C2=O)N(C)C(=O)CN(C)C1=O [PP1508] | A (a compound having 10 or more and less than 20 is denoted as A) | A (a compound having 10 or more and less than 20 is denoted as A) | 28.1
13 | CC[C@H](C)[C@@H]1NC(=O)[C@H](CC2CC2)N(C)C(=O)C[C@@H](C(=O)N2CCCC2)N(C)C(=O)[C@H](C2CCCC2)N(C)C(=O)C2(CCCC2)NC(=O)[C@@H]2C[C@@H](C(F)(F)F)CN2C(=O)[C@H](CCc2cc(F)c(C(F)(F)F)c(F)c2)NC(=O)CN(C)C(=O)[C@H](Cc2ccc(F)cc2)N2CC/C=C\C[C@@H](C2=O)N(C)C(=O)CN(C)C1=O [PP1509] | A (a compound having 10 or more and less than 20 is denoted as A) | A (a compound having 10 or more and less than 20 is denoted as A) | 67.9
14 | CCO[C@@H]1C[C@H]2C(=O)NC3(CCC3)C(=O)N(C)[C@@H](C(CC)CC)C(=O)N(C)[C@H](C(=O)N(C)C)CC(=O)N(C)[C@@H](CC3CC3)C(=O)N[C@@H]([C@@H](C)CC)C(=O)N(C)CC(=O)N(C)[C@H]3C/C=C\CCN(C3=O)[C@@H](Cc3ccc(F)cc3C)C(=O)N(C)CC(=O)N[C@@H](CCc3cc(F)c(C(F)(F)F)c(F)c3)C(=O)N2C1 [PP1514] | A (a compound having 10 or more and less than 20 is denoted as A) | A (a compound having 10 or more and less than 20 is denoted as A) | 72.7
15 | CCO[C@@H]1C[C@H]2C(=O)NC3(CCC3)C(=O)N(C)[C@@H](C(CC)CC)C(=O)N(C)[C@H](C(=O)N(C)C)CC(=O)N(C)[C@@H](CC3CCCC3)C(=O)N[C@@H]([C@@H](C)CC)C(=O)N(C)CC(=O)N(C)[C@H]3C/C=C\CCN(C3=O)[C@@H](Cc3ccc(F)cc3C)C(=O)N(C)CC(=O)N[C@@H](CCc3cc(F)c(C(F)(F)F)c(F)c3)C(=O)N2C1 [PP1516] | A (a compound having 10 or more and less than 20 is denoted as A) | B (a compound having 3 or more and less than 10 is denoted as B) | 45.7
